According to patent publication US9079910B2, “5-(1,2,3-triazol-4-yl)-7H-pyrrolo[2,3-D]pyrimidine derivatives” (Merck Patent GmbH, priority 2011, dated 2015):

What was measured:
IKKepsilon = target: T1, IKKepsilon (Homo sapiens, UniProt Q14164); assay: IKK kinase test (IKKepsilon) (384-well flashplate assay); type: biochemical; details: 1 nM IKK, 10 μM ATP, 30° C., 120 min
T1 sequence (Q14164 1-716): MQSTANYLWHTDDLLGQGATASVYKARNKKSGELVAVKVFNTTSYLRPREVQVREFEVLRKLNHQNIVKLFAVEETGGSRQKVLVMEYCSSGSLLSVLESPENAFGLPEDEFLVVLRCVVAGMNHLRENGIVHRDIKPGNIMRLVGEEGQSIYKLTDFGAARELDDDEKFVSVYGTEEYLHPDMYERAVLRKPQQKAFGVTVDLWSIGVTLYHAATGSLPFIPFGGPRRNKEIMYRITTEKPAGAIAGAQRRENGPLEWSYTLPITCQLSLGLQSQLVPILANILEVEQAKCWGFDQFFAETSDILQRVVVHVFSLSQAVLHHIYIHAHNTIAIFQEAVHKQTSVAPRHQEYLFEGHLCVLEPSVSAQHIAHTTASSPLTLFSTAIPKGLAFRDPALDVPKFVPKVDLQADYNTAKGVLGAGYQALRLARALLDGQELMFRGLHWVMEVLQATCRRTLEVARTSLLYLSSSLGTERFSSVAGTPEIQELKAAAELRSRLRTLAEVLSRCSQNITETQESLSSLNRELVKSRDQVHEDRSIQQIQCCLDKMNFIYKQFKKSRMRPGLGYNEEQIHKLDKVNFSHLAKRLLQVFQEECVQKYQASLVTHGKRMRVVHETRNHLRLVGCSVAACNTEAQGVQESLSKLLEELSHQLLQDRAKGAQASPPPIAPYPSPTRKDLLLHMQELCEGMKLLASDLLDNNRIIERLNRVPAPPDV
Method: IKK—Kinase Test (IKKepsilon)
The kinase assay is performed as 384-well flashplate assay.
1 nM IKK, 800 nM biotinylated I B (19-42) peptide (biotin-C6-C6-[…]) and 10 μM ATP (with 0.3 μCi of ^33P-ATP/well) are incubated in a total volume of 50 μl (10 mM MOPS, 10 mM magnesium acetate, 0.1 mM EGTA, 1 mM dithiothreitol, 0.02% of Brij35, 0.1% of BSA, 0.1% of BioStab, pH 7.5) with or without test substance at 30° C. for 120 min. The reaction is stopped using 25 μl of 200 mM EDTA solution, filtered off with suction after 30 min at room temperature, and the wells are washed 3 times with 100 μl of 0.9% NaCl solution. The non-specific proportion of the kinase reaction (blank) is determined using 3 μM BX-795. Radioactivity is measured in the Topcount. IC50 values are calculated using RS1.

[1] = target: T2, TANK binding kinase (TBK1) (Homo sapiens, UniProt Q9UHD2); assay: TBK1 kinase test (384-well flashplate assay); type: biochemical; details: 0.6 nM TBK1, 10 μM ATP, 30° C., 120 min
T2 sequence (Q9UHD2 1-729): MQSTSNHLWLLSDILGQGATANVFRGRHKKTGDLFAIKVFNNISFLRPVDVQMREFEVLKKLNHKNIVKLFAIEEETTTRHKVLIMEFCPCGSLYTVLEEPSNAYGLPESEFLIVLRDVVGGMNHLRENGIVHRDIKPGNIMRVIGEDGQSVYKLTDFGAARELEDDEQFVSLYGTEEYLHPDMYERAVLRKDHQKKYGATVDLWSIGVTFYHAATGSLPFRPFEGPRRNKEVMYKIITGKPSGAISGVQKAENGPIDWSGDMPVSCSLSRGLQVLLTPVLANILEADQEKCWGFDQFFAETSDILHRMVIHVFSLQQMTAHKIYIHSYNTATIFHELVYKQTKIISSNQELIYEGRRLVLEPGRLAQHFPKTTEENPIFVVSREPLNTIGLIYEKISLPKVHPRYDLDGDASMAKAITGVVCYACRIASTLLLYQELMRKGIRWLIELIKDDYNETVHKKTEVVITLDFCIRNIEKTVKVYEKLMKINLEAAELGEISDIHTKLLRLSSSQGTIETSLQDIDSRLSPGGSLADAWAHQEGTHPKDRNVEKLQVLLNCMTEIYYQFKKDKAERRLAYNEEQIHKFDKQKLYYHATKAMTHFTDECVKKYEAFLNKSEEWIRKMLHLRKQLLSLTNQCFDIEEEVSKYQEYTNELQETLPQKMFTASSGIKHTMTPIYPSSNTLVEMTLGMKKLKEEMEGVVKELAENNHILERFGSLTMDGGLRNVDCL
Method: The kinase assay is performed as 384-well flashplate assay. 0.6 nM TANK binding kinase (TBK1), 800 nM biotinylated MELK-derived peptide (biotin-Ah-Ah-[…]) and 10 μM ATP (with 0.25 μCi of ^33P-ATP/well) are incubated in a total volume of 50 μl (10 mM MOPS, 10 mM magnesium acetate, 0.1 mM EGTA, 1 mM DTT, 0.02% of Brij35, 0.1% of BSA, pH 7.5) with or without test substance at 30° C. for 120 min. The reaction is stopped using 25 μl of 200 mM EDTA solution, filtered off with suction after 30 min at room temperature, and the wells are washed 3 times with 100 μl of 0.9% NaCl solution. The non-specific proportion of the kinase reaction (blank) is determined using 100 nM staurosporine. Radioactivity is measured in the Topcount. IC50 values are calculated using RS1.

A2780 = assay: Vitality assay (tumour cell proliferation/vitality, Alamar Blue), A2780; type: cell-based; details: Homo sapiens, 96 h, A2780 cells, 4 days
Method: (§1) In the present experiment description, the inhibition of tumour cell proliferation/tumour cell vitality by active compounds is described.
(§2) The cells are sown in a suitable cell density in microtitre plates (96-well format) and the test substances are added in the form of a concentration series. After four further days of cultivation in serum-containing medium, the tumour cell proliferation/tumour cell vitality can be determined by means of an Alamar Blue test system.
(§3) The cells are cultivated in medium. At intervals of several days, the cells are detached from the culture dishes with the aid of trypsin solution and sown in suitable dilution in fresh medium. The cells are cultivated at 37° Celsius and 10% CO2. […]
(§4) In each case, 20 μl of Alamar Blue reagent are added per well, and the microtitre plates are incubated, for example, for a further seven hours in a CO2 incubator (at 37° C. and 10% CO2). The plates are measured in a reader with a fluorescence filter at a wavelength of 540 nm. […]
(§5) The absorbance value of the medium control (no cells and test substances used) is subtracted from all other absorbance values. The controls (cells without test substance) are set equal to 100 percent, and all other absorbance values are set in relation thereto (for example in % of control):
(§6) IC50 values (50% inhibition) are determined with the aid of statistics programs, such as, for example, RS1.

PDK1 = target: T3, PDK1 (Homo sapiens, UniProt O15530); assay: Test for the inhibition of PDK1 (flashplate, 33P-ATP); type: biochemical; details: His6-PDK1, 4 μM ATP, 30° C., 60 min
T3 construct: His6 (N)
T3 sequence (O15530 51-556 limits assumed): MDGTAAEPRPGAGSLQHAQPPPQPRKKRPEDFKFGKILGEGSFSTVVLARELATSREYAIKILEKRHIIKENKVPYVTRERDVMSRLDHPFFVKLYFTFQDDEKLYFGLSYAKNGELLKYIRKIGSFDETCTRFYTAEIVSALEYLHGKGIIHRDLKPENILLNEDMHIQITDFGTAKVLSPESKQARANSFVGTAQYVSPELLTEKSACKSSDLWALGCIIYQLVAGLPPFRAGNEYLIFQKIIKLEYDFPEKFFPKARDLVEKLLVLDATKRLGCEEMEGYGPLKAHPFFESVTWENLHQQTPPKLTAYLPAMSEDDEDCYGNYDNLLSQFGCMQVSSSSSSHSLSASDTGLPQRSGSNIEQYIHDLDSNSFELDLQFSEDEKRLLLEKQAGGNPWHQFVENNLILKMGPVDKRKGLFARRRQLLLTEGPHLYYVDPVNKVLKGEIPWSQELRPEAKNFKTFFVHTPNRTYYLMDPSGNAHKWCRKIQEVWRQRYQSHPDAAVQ
Method: 4.0 Test for the Inhibition of PDK1
The experimental batches are carried out in a flashplate system with 384 wells/microtitration plate.
In each case, the PDK1 sample His6-PDK1(1-50)(3.4 nM), the PDK1 substrate biotin-bA-bA-[…] (400 nM), 4 μM ATP (with 0.2 μCi of ^33P-ATP/well) and the test substance in 50 μl of conventional experimental solution per well are incubated at 30° C. for 60 min. The test substances are employed in corresponding concentrations (if desired in a dilution series). The control is carried out without test substance. The reaction is stopped using standard methods and washed. The activity of the kinase is measured via the incorporated radioactivity in top count. In order to determine the non-specific kinase reaction (blank value), the experimental batches are carried out in the presence of 100 nM staurosporine.
The radioactivity (decompositions per minute) of the blank value (no use of test substance in the presence of staurosporine) is subtracted from all other radioactivity values. The controls (kinase activity without test substance) are set equal to 100 percent and all other radioactivity values (after subtracting the blank value) are expressed set in relation thereto (for example in % of the control).
IC50 values (50% inhibition) are determined with the aid of statistics programmes, such as, for example, RS1.

HCT 116 = assay: Vitality assay (tumour cell proliferation/vitality, Alamar Blue), HCT 116; type: cell-based; details: Homo sapiens, 96 h, HCT 116 cells, 4 days
Method: as §1, §2, §3, §4, §5, §6

IC50 (IKKepsilon) [µM] | IC50 [1] [µM] | IC50 (A2780) [µM] | IC50 (PDK1) [µM] | IC50 (HCT 116) [µM] | Compound
1 to 10 | 0.01 to 1 | 1 to 10 | 0.01 to 1 | 1 to 10 | COCCOc1ncnc2[nH]cc(-c3cn(Cc4ccccc4)nn3)c12 [Compound A1, 5-(1-benzyl-1H-1,2,3-triazol-4-yl)-4-(2-methoxyethoxy)-7H-pyrrolo[2,3-d]pyrimidine]
0.01 to 1 | 0.01 to 1 |  | 0.01 to 1 |  | COc1ncnc2[nH]cc(-c3cn(Cc4ccccc4)nn3)c12 [Compound A2]
1 to 10 | 1 to 10 |  | 1 to 10 |  | c1ccc(Cn2cc(-c3c[nH]c4ncncc34)nn2)cc1 [Compound A6, 5-(1-benzyl-1H-1,2,3-triazol-4-yl)-7H-pyrrolo[2,3-d]pyrimidine]
1 to 10 | > 10 |  | 1 to 10 |  | Fc1cccc(C(CCN2CCCCC2)n2cc(-c3c[nH]c4ncncc34)nn2)c1F (centres unmarked) [Compound A9, 5-{1-[1-(2,3-difluorophenyl)-3-piperidin-1-ylpropyl]-1H-1,2,3-triazol-4-yl}-7H-pyrrolo[2,3-d]pyrimidine]
